Patent US8202910B2 (Sequella, Inc., priority 2006, dated 2012)
In brackets after ≈: the same amount, converted by molar mass. Like-named read-outs stand apart in the source and are kept apart here.

How the values were obtained:
MDR strain TN587 = assay: microbe, parasite or virus in culture; format: cell-based, Mycobacterium tuberculosis; conditions: for Drug Resistance of MDR Strain: 587 W; for MIC: Mycobacterium tuberculosis
MDR Strain TN576 = assay: microbe, parasite or virus in culture; format: cell-based, Mycobacterium tuberculosis; conditions: for Drug Resistance of MDR Strain: 576 W1; for MIC: Mycobacterium tuberculosis
MDR strain TN3086 (3806) = assay: microbe, parasite or virus in culture; format: cell-based, Mycobacterium tuberculosis; conditions: for MIC: Mycobacterium tuberculosis; for Drug Resistance of MDR Strain: 3806 W1
EMB-resistant strain = assay: microbe, parasite or virus in culture; format: cell-based, M. tuberculosis; conditions: Mycobacterium tuberculosis
INH-resistant MTB strain = assay: microbe, parasite or virus in culture; format: cell-based, M. tuberculosis; conditions: Mycobacterium tuberculosis
[1] = system: M. tuberculosis clinical isolates (drug susceptible and drug resistant); format: cell-based; conditions: more than 30 clinical isolates

Molecule | Drug Resistance of MDR Strain (MDR strain TN587) | Drug Resistance of MDR Strain (MDR Strain TN576) | MIC (MDR strain TN587; TN587, strain 587) [µg/mL] | MIC (MDR strain TN3086 (3806); strain 3806) [µg/mL] | MIC (MDR Strain TN576; strain 576) [µg/mL] | Drug Resistance of MDR Strain (MDR strain TN3086 (3806)) | other results
O=C(O)c1cn(C2CC2)c2cc(N3CCNCC3)c(F)cc2c1=O [Cip, Ciprofloxacin] | S | S | – | – | – | – | –
C[C@@H]1[C@H]2C[C@@H](C[C@H]1NCCNC1CCCCCCC1)C2(C)C [Compound 59, N-(Cyclooctyl)-N′-(1R, 2R, 3R, 5S)-(−)-isopinocampheylethane-1,2-diamine] | – | – | 0.05 | 0.05 | 0.1 | – | –
CC(C)=CCC/C(C)=C/CNCCNC1C2CC3CC(C2)CC1C3 (stereo not drawn) [Compound 109, N-Geranyl-N′-(2-adamanthyl)ethane-1,2-diamine] | – | – | 0.2 | 0.1 | 0.2 | – | MIC (EMB-resistant strain): 0.5 µg/mL (≈ 1.51 µM); MIC (INH-resistant MTB strain): 0.25 µg/mL (≈ 0.756 µM); MIC range [1]: 0.16 to 0.64 µg/mL
N[C@@H]1CON=C1O [Cyc, Cycloserine] | S | S | – | – | – | – | –
CC[C@@H](CO)NCCN[C@@H](CC)CO [EMB, Ethambutol, reference compound] | R | R | – | – | – | R | MIC (MDR strain TN587; TN587, read-out: MIC of ethambutol, MDR strain, TN587): 12.5 to 25 µM; MIC (MDR strain TN3086 (3806); read-out: MIC of ethambutol, MDR strain, TN3086): 12.5 to 25 µM; MIC (MDR Strain TN576; read-out: MIC of ethambutol, MDR strain, TN576): 12.5 to 25 µM
CCc1cc(C(N)=S)ccn1 [Eth, Ethionamide] | S | R | – | – | – | S | –
NNC(=O)c1ccncc1 [INH, Isoniazid] | R | R | – | – | – | R | –
NC[C@H]1O[C@H](O[C@H]2[C@H](O)[C@@H](O[C@H]3O[C@H](CO)[C@@H](O)[C@H](N)[C@H]3O)[C@H](N)C[C@@H]2N)[C@H](O)[C@@H](O)[C@@H]1O [Kan, Kanamycin] | R | R | – | – | – | R | –
CC1(C)CC2CC(C)(CN2CCNC[C@@H]2CCC3C[C@@H]2C3(C)C)C1 [MP 116] | – | – | 6.25 | 3.15 | 3.15 | – | –
C[C@@H]1C2C[C@@H](C[C@H]1NCCNC[C@@H]1CCC3C[C@@H]1C3(C)C)C2(C)C [MP 117] | – | – | 3.15 | 3.15 | 3.15 | – | –
CO[C@H]1/C=C/O[C@@]2(C)Oc3c(C)c(O)c4c(O)c(c(/C=N/N5CCN(C)CC5)c(O)c4c3C2=O)NC(=O)/C(C)=C\C=C\[C@H](C)[C@H](O)[C@@H](C)[C@@H](O)[C@@H](C)[C@H](OC(C)=O)[C@@H]1C [RIF, Rifampicin] | R | R | – | – | – | R | –
CC1(C)C2CCC(CNCCNCC(c3ccccc3)c3ccccc3)[C@@H]1C2 (stereo partly drawn) [RL 241] | – | – | 1.5 | 1.5 | 1.5 | – | –
[H]/N=C(/N)N[C@H]1[C@H](O)[C@@H](O)[C@H](O[C@@H]2O[C@@H](C)[C@](O)(C=O)[C@H]2O[C@@H]2O[C@@H](CO)[C@H](O)[C@@H](O)[C@@H]2NC)[C@@H](N/C(N)=N\[H])[C@@H]1O [SM, Streptomycin] | R | R | – | – | – | R | –
Capreomycin | S | R | – | – | – | – | –
